Reference: ChEMBL document CHEMBL5034034 (J Med Chem, 2021)
pEC50, pKi: −log10 of the molar value. Values belong to the compound of their own block, whether it stands above or below them. Calls of active or inactive are those of the source. No cut-off for these calls is given here.

What was measured:
[1] = molecular target: T1, Proprotein convertase subtilisin/kexin type 9 (Homo sapiens, UniProt Q8NBP7); assay: Inhibition of human PCSK9 using Alexa Fluor […] as substrate incubated for 2 hrs by FRET assay
[2] = molecular target: T1, Proprotein convertase subtilisin/kexin type 9; assay: Inhibition of human PCSK9 using Alexa Fluor […] as substrate incubated for 2 hrs by FRET plus assay
[3] = AUC(0 to infinity) in Wistar Han rat at 1 mg/kg, iv measured upto 24 hrs by LC-MS/MS analysis; format: ADME, organism-based; set-up: route intravenous, dose 1 mg/kg, time <=24; conditions: in vivo
[4] = Clearance in Wistar Han rat at 1 mg/kg, iv measured upto 24 hrs by LC-MS/MS analysis; format: ADME, organism-based; conditions: in vivo
[5] = Volume of distribution at steady state in Wistar Han rat at 1 mg/kg, iv measured upto 24 hrs by LC-MS/MS analysis; format: ADME, organism-based; conditions: in vivo, read-out: Vdss
[6] = Half life in Wistar Han rat at 1 mg/kg, iv measured upto 24 hrs by LC-MS/MS analysis; format: ADME, organism-based; conditions: in vivo
[7] = Protein binding in Wistar Han rat at 1 mg/kg, iv measured upto 24 hrs by LC-MS/MS analysis; format: ADME, organism-based; conditions: in vivo, read-out: PB (converted)
[8] = Unbound clearance in Wistar Han rat at 1 mg/kg, iv measured upto 24 hrs by LC-MS/MS analysis; format: ADME, organism-based; conditions: in vivo
[9] = AUC(0 to infinity) in cynomolgus monkey at 1 mg/kg, iv measured upto 72 hrs by LC-MS/MS analysis; format: ADME, organism-based, Macaca fascicularis; set-up: route intravenous, dose 1 mg/kg, time <=72; conditions: in vivo
[10] = Clearance in cynomolgus monkey at 1 mg/kg, iv measured upto 72 hrs by LC-MS/MS analysis; format: ADME, organism-based, Macaca fascicularis; conditions: in vivo
[11] = Volume of distribution at steady state in cynomolgus monkey at 1 mg/kg, iv measured upto 72 hrs by LC-MS/MS analysis; format: ADME, organism-based, Macaca fascicularis; conditions: in vivo, read-out: Vdss
[12] = Half life in cynomolgus monkey at 1 mg/kg, iv measured upto 72 hrs by LC-MS/MS analysis; format: ADME, organism-based, Macaca fascicularis; conditions: in vivo
[13] = Protein binding in cynomolgus monkey at 1 mg/kg, iv measured upto 72 hrs by LC-MS/MS analysis; format: ADME, organism-based, Macaca fascicularis; conditions: in vivo, read-out: PB (converted)
[14] = Unbound clearance in cynomolgus monkey at 1 mg/kg, iv measured upto 72 hrs by LC-MS/MS analysis; format: ADME, organism-based, Macaca fascicularis; conditions: in vivo
[15] = AUC(0 to infinity) in OATP knock out Wistar Han rat at 1 mg/kg, iv measured upto 24 hrs by LC-MS/MS analysis; format: ADME, organism-based; set-up: route intravenous, dose 1 mg/kg, time <=24; conditions: in vivo
[16] = Clearance in OATP knock out Wistar Han rat at 1 mg/kg, iv measured upto 24 hrs by LC-MS/MS analysis; format: ADME, organism-based; conditions: in vivo
[17] = Volume of distribution at steady state in OATP knock out Wistar Han rat at 1 mg/kg, iv measured upto 24 hrs by LC-MS/MS analysis; format: ADME, organism-based; conditions: in vivo, read-out: Vdss
[18] = Half life in OATP knock out Wistar Han rat at 1 mg/kg, iv measured upto 24 hrs by LC-MS/MS analysis; format: ADME, organism-based; conditions: in vivo
[19] = Protein binding in OATP knock out Wistar Han rat; format: ADME; conditions: read-out: PB
[20] = molecular target: T2, Solute carrier organic anion transporter family member 1B1 (Homo sapiens, UniProt Q9Y6L6); assay: Inhibition of OATP1B1 (unknown origin) expressed in HEK293 cells assessed as reduction in OATP 1B1-mediated [3H]-pitavastatin uptake preincubated for 30 mins followed by [3H]-pitavastatin addition and measured after 2 mins by liquid scintillation analysis; format: cell-based
T2 sequence (Q9Y6L6 whole entry): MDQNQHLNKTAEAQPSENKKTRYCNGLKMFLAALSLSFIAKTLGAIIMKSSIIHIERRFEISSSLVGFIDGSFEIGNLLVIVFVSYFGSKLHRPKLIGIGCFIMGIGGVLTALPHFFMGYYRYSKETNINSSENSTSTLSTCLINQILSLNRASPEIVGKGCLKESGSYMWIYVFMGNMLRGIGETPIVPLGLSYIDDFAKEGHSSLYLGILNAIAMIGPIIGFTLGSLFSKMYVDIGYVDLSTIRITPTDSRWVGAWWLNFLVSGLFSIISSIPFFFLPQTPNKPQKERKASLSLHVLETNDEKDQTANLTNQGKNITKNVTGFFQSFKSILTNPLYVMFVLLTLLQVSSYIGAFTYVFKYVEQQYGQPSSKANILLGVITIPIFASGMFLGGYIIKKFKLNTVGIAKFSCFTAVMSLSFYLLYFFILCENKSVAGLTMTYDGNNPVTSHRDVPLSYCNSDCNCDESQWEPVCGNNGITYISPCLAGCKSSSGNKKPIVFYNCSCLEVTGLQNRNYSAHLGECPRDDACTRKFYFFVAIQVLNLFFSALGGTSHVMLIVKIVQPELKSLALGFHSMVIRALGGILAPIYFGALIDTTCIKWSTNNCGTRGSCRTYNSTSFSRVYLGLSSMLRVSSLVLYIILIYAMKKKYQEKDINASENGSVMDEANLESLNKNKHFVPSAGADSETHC

[21] = Unbound clearance in OATP knock out Wistar Han rat at 1 mg/kg, iv measured upto 24 hrs by LC-MS/MS analysis; format: ADME, organism-based; conditions: in vivo
Mast cell = assay: Induction of rat mast cells degranulation activity at 100 uM incubated for 30 mins; format: functional, tissue-based
Sus scrofa [22] = species on record: Sus scrofa; assay: Stability of the compound assessed as porcine pancreatic elastase-mediated parent compound depletion by measuring parent compound remaining after 1 hr by LC-MS/MS analysis
[23] = AUC extrapolated in Wistar Han rat at 5 mg/kg, id measured upto 24 hrs by LC-MS/MS analysis; format: ADME, organism-based; conditions: in vivo, other
[24] = AUC(0 to infinity) in Wistar Han rat at 5 mg/kg, id measured upto 24 hrs by LC-MS/MS analysis; format: ADME, organism-based; set-up: dose 5 mg/kg, time <=24; conditions: in vivo
[25] = Metabolic stability in cynomolgus monkey whole blood assessed as half life measured upto 6 hrs by LC-MS/MS analysis; format: ADME, tissue-based, Macaca fascicularis
[26] = molecular target: T1, Proprotein convertase subtilisin/kexin type 9; assay: Inhibition of human PCSK9 using Alexa Fluor […] as substrate incubated for 2 hrs by FRET ultra assay
Bos taurus = species on record: Bos taurus; assay: Stability of the compound assessed as bovine pancreas alpha chymotrypsin-mediated parent compound depletion by measuring parent compound remaining after 1 hr by LC-MS/MS analysis
Sus scrofa [27] = species on record: Sus scrofa; assay: Stability of the compound assessed as porcine pepsin-mediated parent compound depletion by measuring parent compound remaining after 1 hr by LC-MS/MS analysis
[28] = Stability of the compound assessed as bovine pancreatic trypsin-mediated parent compound depletion by measuring parent compound remaining after 1 hr by LC-MS/MS analysis; format: ADME, Bos taurus; conditions: cattle, read-out: Stability
[29] = Cmax in Wistar Han rat at 5 mg/kg, id measured upto 24 hrs by LC-MS/MS analysis; format: ADME, organism-based; set-up: dose 5 mg/kg, time <=24; conditions: in vivo
[30] = Tmax in Wistar Han rat at 5 mg/kg, id measured upto 24 hrs by LC-MS/MS analysis; format: ADME, organism-based; conditions: in vivo
[31] = Bioavailability in Wistar Han rat at 5 mg/kg, id measured upto 24 hrs by LC-MS/MS analysis; format: ADME, organism-based; conditions: in vivo
[32] = AUC(0 to infinity) in cynomolgus monkey at 0.2 mg/kg, iv measured upto 72 hrs by LC-MS/MS analysis; format: ADME, organism-based, Macaca fascicularis; set-up: route intravenous, dose 0.2 mg/kg, time <=72; conditions: in vivo
[33] = Clearance in cynomolgus monkey at 0.2 mg/kg, iv measured upto 72 hrs by LC-MS/MS analysis; format: ADME, organism-based, Macaca fascicularis; conditions: in vivo
[34] = Volume of distribution at steady state in cynomolgus monkey at 0.2 mg/kg, iv measured upto 72 hrs by LC-MS/MS analysis; format: ADME, organism-based, Macaca fascicularis; conditions: in vivo, read-out: Vdss
[35] = Half life in cynomolgus monkey at 0.2 mg/kg, iv measured upto 72 hrs by LC-MS/MS analysis; format: ADME, organism-based, Macaca fascicularis; conditions: in vivo
[36] = Protein binding in cynomolgus monkey at 0.2 mg/kg, iv measured upto 72 hrs by LC-MS/MS analysis; format: ADME, organism-based, Macaca fascicularis; conditions: in vivo, read-out: PB (converted)
[37] = Unbound clearance in cynomolgus monkey at 0.2 mg/kg, iv measured upto 72 hrs by LC-MS/MS analysis; format: ADME, organism-based, Macaca fascicularis; conditions: in vivo
[38] = AUC(0 to infinity) in cynomolgus monkey at 1 mg/kg, po measured upto 72 hrs by LC-MS/MS analysis; format: ADME, organism-based, Macaca fascicularis; set-up: route oral, dose 1 mg/kg, time <=72; conditions: in vivo
[39] = AUC extrapolated in cynomolgus monkey at 1 mg/kg, po measured upto 72 hrs by LC-MS/MS analysis; format: ADME, organism-based, Macaca fascicularis; conditions: in vivo
[40] = Cmax in cynomolgus monkey at 1 mg/kg, po measured upto 72 hrs by LC-MS/MS analysis; format: ADME, organism-based, Macaca fascicularis; set-up: route oral, dose 1 mg/kg, time <=72; conditions: in vivo
[41] = Tmax in cynomolgus monkey at 1 mg/kg, po measured upto 72 hrs by LC-MS/MS analysis; format: ADME, organism-based, Macaca fascicularis; conditions: in vivo
[42] = Oral bioavailability in cynomolgus monkey at 1 mg/kg measured upto 72 hrs by LC-MS/MS analysis; format: ADME, organism-based, Macaca fascicularis; conditions: in vivo
[43] = molecular target: T1, Proprotein convertase subtilisin/kexin type 9; assay: Inhibition of PCSK9 in human plasma assessed as reduction in unbound PCSK9 by target engagement assay; format: cell-free
Macaca fascicularis [44] = species on record: Macaca fascicularis; assay: Inhibition of PCSK9 in cynomolgus monkey plasma assessed as reduction in unbound PCSK9 by target engagement assay; format: cell-free
[45] = Reduction in LDL-cholesterol levels in cynomolgus monkey at 0.2 mg/kg, iv after 48 hrs; format: functional, Macaca fascicularis; set-up: scale not given: the % may be the effect or the level left
Macaca fascicularis [46] = assay: Reduction in LDL-cholesterol levels in cynomolgus monkey at 0.2 mg/kg, iv after 4 weeks; format: functional, organism-based
[47] = Reduction in unbound PCSK9 levels in cynomolgus monkey at 0.2 mg/kg, iv after 24 to 48 hrs; format: functional, Macaca fascicularis; set-up: scale not given: the % may be the effect or the level left; conditions: time 24-48 hrs
[48] = Reduction in unbound PCSK9 levels in cynomolgus monkey at 0.2 mg/kg, po after 0.5 to 6 hrs; format: functional, Macaca fascicularis; set-up: scale not given: the % may be the effect or the level left; conditions: time 0.5-6 hrs
[49] = Reduction in unbound PCSK9 levels in cynomolgus monkey at 0.2 mg/kg, po after 24 hrs; format: functional, Macaca fascicularis; set-up: scale not given: the % may be the effect or the level left

T1 sequence (Q8NBP7 31-152 limits assumed): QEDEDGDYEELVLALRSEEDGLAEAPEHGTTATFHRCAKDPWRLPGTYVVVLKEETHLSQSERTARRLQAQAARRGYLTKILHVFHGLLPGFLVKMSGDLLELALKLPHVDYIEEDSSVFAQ
T1 sequence (Q8NBP7 153-692 limits assumed): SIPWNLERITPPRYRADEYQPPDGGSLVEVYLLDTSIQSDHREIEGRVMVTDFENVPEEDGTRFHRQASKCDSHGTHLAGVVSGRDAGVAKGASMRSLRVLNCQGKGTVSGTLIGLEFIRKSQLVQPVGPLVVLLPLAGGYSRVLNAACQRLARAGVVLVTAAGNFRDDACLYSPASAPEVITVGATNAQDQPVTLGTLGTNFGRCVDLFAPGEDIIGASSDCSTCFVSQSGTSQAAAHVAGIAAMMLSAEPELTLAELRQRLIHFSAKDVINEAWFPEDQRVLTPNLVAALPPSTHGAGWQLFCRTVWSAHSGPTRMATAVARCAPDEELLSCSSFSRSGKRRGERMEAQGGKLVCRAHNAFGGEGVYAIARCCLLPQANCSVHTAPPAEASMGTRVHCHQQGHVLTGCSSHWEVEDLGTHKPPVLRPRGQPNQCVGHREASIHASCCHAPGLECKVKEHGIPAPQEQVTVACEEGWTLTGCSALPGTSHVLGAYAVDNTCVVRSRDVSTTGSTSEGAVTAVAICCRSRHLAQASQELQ

pKi [1]: 9.32 | pKi [2]: 9.41 | AUC(0-inf) [3]: 0.442 µM·h | clearance [4]: 28.7 mL/min/kg | Vd [5]: 0.8 L/kg | half-life [6]: 2.1 h | fraction unbound at 24 h [7]: 0.01 | CL free [8]: > 3000 mL/min/kg | AUC(0-inf) [9]: 0.648 µM·h | clearance [10]: 19.6 mL/min/kg | Vd [11]: 2.1 L/kg | half-life [12]: 3.4 h | fraction unbound at 72 h [13]: 0.024 | CL free [14]: 576 mL/min/kg | AUC(0-inf) [15]: 2.92 µM·h | clearance [16]: 4.4 mL/min/kg | Vd [17]: 0.9 L/kg | half-life [18]: 3.9 h | fraction unbound [19]: 0.01 | pEC50 [20]: 6.89 | CL free [21]: 453 mL/min/kg
SMILES: COc1ccc(C[C@@H]2NC(=O)[C@H]([C@@H](C)OC)NC(=O)[C@@H]3[C@@H]4CCN3C(=O)[C@H](Cc3c[nH]c5ccc(F)cc35)NC(=O)[C@H](Cc3cccc(c3)C/C=C/CO4)NC(=O)[C@@H](C)NC(=O)[C@H](C)NC(=O)CCSCc3cccc(c3)CSCCNC(=O)[C@]3(C)CCCN3C2=O)cc1
Activity (Mast cell): inactive

Stability (Sus scrofa [22]): 97% | %AUCextra [23]: 3% | AUC(0-inf) [24]: 0.274 µM·h | half-life [25]: > 6 h | pKi [1]: < 9.89 | pKi [2]: 10.94 | pKi [26]: 11.62 | pEC50 [20]: < 4.66 | Stability (Bos taurus): 93% | Stability (Sus scrofa [27]): 97.2% | remaining at 1 h [28]: 96.8% | Cmax [29]: 92 nM | Tmax [30]: 0.5 h | bioavailability [31]: 2.7% | AUC(0-inf) [32]: 1.47 µM·h | clearance [33]: 1.4 mL/min/kg | Vd [34]: 0.7 L/kg | half-life [35]: 7.6 h | fraction unbound at 72 h [36]: 0.247 | CL free [37]: 5.8 mL/min/kg | AUC(0-inf) [38]: 0.216 µM·h | %AUCextra [39]: 43% | Cmax [40]: 9.8 nM | Tmax [41]: 2 h | bioavailability [42]: 2.9% | inhibition [43]: Active | inhibition (Macaca fascicularis [44]): Active
SMILES: COc1ccc(C[C@@H]2NC(=O)[C@H]([C@@H](C)O)NC(=O)[C@@H]3[C@@H]4CCN3C(=O)[C@@H]3Cc5cn(c6ccc(F)cc56)Cc5cn(nn5)-c5cc(cc(c5)CSCCC(=O)N[C@@H](CNC(=O)CCOCCOCC[N+](C)(C)C)C(=O)N[C@H](C)C(=O)N[C@@H](Cc5cccc(c5)C/C=C/CO4)C(=O)N3)CSCCNC(=O)[C@]3(C)CCCN3C2=O)cc1
Activity (Mast cell): inactive | Activity [45]: >50% | Activity (Macaca fascicularis [46]): inactive | Activity [47]: >80% | Activity [48]: 80% | Activity [49]: 60%
